These are literature values, as cited in US10202400B2, “Cortistatin analogues and syntheses thereof” (President and Fellows of Harvard College, priority 2008, dated 2019).

One may read the GI50 as the concentration that inhibits growth by half.

Data set [1] relates to human nasopharynx carcinoma (KB) cells.
Data set [2] deals with HUVECs.
The subject of data set [3] is several human and murine cancer cell lines and one normal human dermal fibroblast cell line (KB3-1, Neuro2A, K562, NHDF).
Data set [4] relates to human umbilical vein endothelial cells (HUVECs).
In data set [5] the test system is HUVEC.

In brackets after ≈: the same amount, converted by molar mass.

As to `CN[C@@H](C)[C@H]1CC[C@H]2[C@@H]3CC[C@@H]4C(=CC3=CC[C@]12C)CC[C@H](NC)C4(C)C` [buxenine G], in data set [1], the ED50 is 0.4 µg/mL (≈ 1.08 µM).
On to `CN(C)[C@H]1C[C@@]23CC[C@@]4(O2)C(=CC[C@]2(C)[C@@H](c5ccc6ccncc6c5)CC[C@H]24)C=C3[C@@H](O)[C@@H]1O` [Cortistatin A, cortistatin A], for which the “tubular formation in HUVECs” value in data set [2] is listed as “inhibits tubular formation”. Moreover, the GI50 in data set [3] is 6 to 7 µM; in data set [4] it was 0.00018 µM. Also, the HUVEC cellular migration entry in data set [5] is “inhibits HUVEC cellular migration”.
